Read-outs that look alike come from different tables or passages of the source.
Experiments:
[1] = tested on: human dermal fibroblast (HDF) primary cells; test: H2O2-resistance in primary human dermal fibroblasts; type: cell-based; conditions: for fold induction at 10 µM: Homo sapiens; for Assay 6: H2O2-resistant, at 10 uM, human dermal fibroblast (HDF) primary cells: YES/NO
[2] = tested on: PC12 cells expressing poly(Q)103-Htt-EGFP; test: Poly(Q) toxicity & viability analysis (cellular model of Huntington's disease); type: cell-based, rat; conditions: for Viability of PC12 cells upon induction of toxic poly(Q)103-Htt-EGFP aggregates: 2.5 μM, 5 μM, 10 μM and 20 μM; for Assay 20: Huntington's poly-Q toxicity attenuation: 10 uM, YES/NO; for M = Huntington's poly-Q toxicity attenuation: score; for K = Huntington's poly-Q toxicity attenuation: summary score
Protocol: Viability assays were performed as described before (Aiken et al., 2004). PC12 cells that stably express the inducible poly(Q)103-Htt-EGFP were grown in culture. […] Cell viability was analyzed 48 hrs later by measuring ATP content with CellTiter-Glo.
Toxic protein aggregation is a key feature of many age-related neurodegenerative diseases, including Alzheimer's and Huntington's disease (Caughey and Lansbury, 2003; Ross and Poirier, 2004). A number of animal models (Phillips et al., 2009) and cell models (Schlachetzki et al., 2013) have been established to study these diseases. For this purpose, PC12 rat pheochromocytoma cells display neuronal features and produce neurotransmitters and have been used extensively to study neuronal phenotypes, including synaptic transmission and neurological diseases. […] In this model, induced expression of poly(Q)103-Htt-EGFP could lead to the formation of aggregates and exert substantial toxicity in cells.

C. elegans = type: in vivo, Caenorhabditis elegans; conditions: in vivo
Protocol: The worms were treated with the small molecules in liquid, with H2O2 (500 μM final concentration) added on day 4 of adulthood, and scored for viability everyday
FUdR was used to block progeny production. The molecules were analyzed in 96-well plates, with 4 wells for each small molecule. Multiple control wells with DMSO (0.2% final concentration) were included. […] Day 1 adults were transferred onto mini-plates, seeded with OP50 bacteria (UV-irradiated, kanamycin-treated) and supplemented with small molecules (˜60 μM final concentration, 0.2% DMSO). Worms were scored every other day. Cumulative survival was analyzed using the STATA software (log-rank test). […] The worms were treated with the small molecules in liquid, with H2O2 (500 μM final concentration) added on day 4 of adulthood, and scored for viability every day.

[3] = tested on: phosphorylated γH2A.X and TP53BP1; test: DNA damage marker analysis (immuno-staining); conditions: for activity at 10 µM: Homo sapiens, WI-38, 24 h
Protocol: WI-38 cells were seeded on 96-well plates and cultured for 24 hrs and then incubated with small molecules for another 24 hrs. As the positive control to damage DNA, H2O2 was supplemented at 700 μM final concentration for the last 3 hrs. Cells were washed with phosphate-buffered saline (PBS), fixed with 4% paraformaldehyde and then blocked with 5% normal goat serum (Cell Signaling), plus 0.3% Triton X-100, for 1 hr. Primary antibody cocktail (rabbit anti-phospho-histone γH2A.X (Ser-139), 1:100; anti-phospho-TP53BP1 (Ser-1778), 1:100), prepared in 1% BSA and 0.3% Triton X-100/PBS, was then introduced and incubated overnight at 4 C. Next day, samples were washed with PBS and further incubated with fluorophore-conjugated secondary antibody (1:1,000) for 1 hr in the dark. Samples were then washed and incubated with DAPI dye (Life Technologies) (4 μg/ml final concentration) for the last 10 minutes. Images were collected on an INCell Analyzer 2000 (GE) and analyzed with the Developer software.
WI-38 cells were seeded (˜8,000 cells per well) on 96-well plates and cultured for 24 hrs and then incubated with small molecules for another 24 hrs. Doxorubicin (300 nM, 24 hrs) and H2O2 (700 μM, 3 hrs) were also introduced as the positive controls to damage DNA. Cells were washed with phosphate-buffered saline (PBS), fixed with 4% paraformaldehyde for 30 min and then blocked with 5% normal goat serum (Cell Signaling) and 0.3% Triton X-100 for 1 hr. Primary antibody cocktail (Cell Signaling, rabbit anti-phospho-histone γH2A.X (Ser-139), 1:100; anti-phospho-TP53BP1 (Ser-1778), 1:100) was prepared in PBS with 1% BSA and 0.3% Triton X-100 and incubated overnight at 4° C. Next day, samples were washed with PBS and further incubated with fluorophore-conjugated secondary antibody (1:1,000) for 1 hr in dark. Samples were then washed and incubated with DAPI dye (Life Technologies) (4 μg/ml final concentration) for 30 minutes. Images were collected on the INCell Analyzer 2000 (10× objective) and analyzed with the Developer Toolbox.

[4] = Experiment 1, HDF cells, read-out: Experiment 1, HDF cells (under H2O2 stress treatment), at 10 uM (fold change)
[5] = Experiment 2, HDF cells, read-out: Experiment 2, HDF cells (under H2O2 stress treatment), at 10 uM (fold change)
[6] = read-out: Experiment 1, H2A.X-P DNA damage foci staining (no H2O2 stress treatment), at 10 uM
[7] = read-out: Experiment 2, H2A.X-P DNA damage foci staining (no H2O2 stress treatment), at 10 uM
[8] = read-out: Experiment 2, H2A.X-P DNA damage foci staining (under H2O2 stress treatment), at 10 uM
[9] = read-out: Experiment 2, TP53BP1-P DNA damage foci staining (no H2O2 stress treatment), at 10 uM
[10] = read-out: Experiment 2, TP53BP1-P DNA damage foci staining (under H2O2 stress treatment), at 10 uM

| Compound | fold induction at 10 µM [1, 4] | fold induction at 10 µM [1, 5] | Assay 6: H2O2-resistant, at 10 uM, human dermal fibroblast (HDF) primary cells [1] | Viability of PC12 cells upon induction of toxic poly(Q)103-Htt-EGFP aggregates [2] | Assay 20: Huntington's poly-Q toxicity attenuation [2] | M = Huntington's poly-Q toxicity attenuation [2] | K = Huntington's poly-Q toxicity attenuation [2] | H2O2-resistance assay, 1st experiment (C. elegans) | L = H2O2-resistance in worms (C. elegans) | N = H2O2-resistance in woms (C. elegans) | activity at 10 µM [3, 6] | activity at 10 µM [3, 7] | activity at 10 µM [3, 8] | activity at 10 µM [3, 9] | activity at 10 µM [3, 10] | P = Potential DNA-damaging ([3]; human, 24 h) | R = Potential DNA damaging ([3]; human, 24 h) | R = Potential DNA damaging ([3]; negative point, cultured human cells) | P = Potential DNA-damaging ([3]; summary score) |
| --- | --- | --- | --- | --- | --- | --- | --- | --- | --- | --- | --- | --- | --- | --- | --- | --- | --- | --- | --- |
| NS(=O)(=O)c1ccc(NC(=O)c2ccc([N+](=O)[O-])o2)cc1 [Gr-1A] | 3.89 | 52.5 | YES | consistently increased the viability | YES | 1 | 1 | YES; | 0 | 0 | 196% | 223% | 179% | 411% | 653% | 1 | 1 | – | – |
| O=C(Nc1cc(C(F)(F)F)ccc1Cl)c1ccc([N+](=O)[O-])o1 [Gr-1B] | 0.51 | 53.7 | YES | – | – | 0 | 0 | – | 0 | 0 | 134% | 95.8% | 118% | 211% | 137% | 0 | 0 | – | – |
| CCc1ccccc1NC(=O)c1ccc([N+](=O)[O-])o1 [Gr-1C] | 15.2 | 49.1 | YES | consistently increased the viability | YES | 1 | 1 | – | 0 | 0 | 217% | 311% | 178% | 375% | 552% | 1 | 1 | – | – |
| O=C(Nc1cccc(Cl)c1)c1ccc([N+](=O)[O-])o1 [Gr-1D] | 2.79 | 49.3 | YES | – | – | 0 | 0 | – | 0 | 0 | 232% | 353% | 164% | 353% | 554% | 1 | 1 | – | – |
| O=C(Nc1cccc(C(F)(F)F)c1)c1ccc([N+](=O)[O-])o1 [Gr-1E] | 1.4 | 31 | YES | – | – | 0 | 0 | – | 0 | 0 | 162% | 107% | 151% | 289% | 475% | 0 | 0 | – | – |
| Cc1ccc(NC(=O)c2ccc([N+](=O)[O-])o2)cc1C [Gr-1F] | 5.84 | 52.3 | YES | – | – | 0 | 0 | – | 0 | 0 | 219% | 378% | 127% | 460% | 558% | 1 | 1 | – | – |
| O=C(Nc1ccc(Cl)c(Cl)c1)c1ccc([N+](=O)[O-])o1 [Gr-1G] | – | – | YES | – | – | 0 | 0 | – | 0 | 0 | 150% | 179% | 63.3% | 256% | – | 0 | 0 | – | – |
| O=[N+]([O-])c1ccccc1S(=O)(=O)Nc1cccc2cccnc12 [Gr-3A] | 2.38 | 1.67 | YES | – | – | 0 | 0 | – | 0 | 0 | 139% | 338% | 143% | 334% | 66.1% | 1 | 1 | – | – |
| Cc1ccc(S(=O)(=O)Nc2cccc3cccnc23)cc1 [Gr-3B] | 3.1 | 1.59 | YES | – | – | 0 | 0 | YES; | 0 | 0 | 81.9% | 228% | 130% | 244% | 66.3% | 0 | 0 | – | – |
| Nc1ccccc1S(=O)(=O)Nc1cccc2cccnc12 [Gr-3C] | 6.59 | 1.69 | YES | – | – | 0 | 0 | – | 0 | 0 | 113% | 404% | 136% | 254% | 390% | 1 | 1 | – | – |
| Oc1ccccc1-c1noc(-c2ccccc2O)n1 [O27] | – | – | YES | – | – | 0 | 0 | – | – | – | 122% | 338% | 26.1% | 241% | 379% | – | – | 1 | 1 |

Reference: patent publication US11413278B2, “Compounds and methods for promoting stress resistance” (priority 2015, dated 2022)
